Reference: ChEMBL document CHEMBL5584334, “Discovery of a Covalent Inhibitor of Pro-Caspase-1 Zymogen Blocking NLRP3 Inflammasome Activation and Pyroptosis” (J Med Chem, 2024)
Calls of active or inactive are those of the source. The calls are words filed in the database; no cut-off is given here.

Columns and labels:
J774.A1 [1] = experiment: Inhibition of pyroptosis in mouse J774.A1 cells assessed as reduction in cleaved GSDMD expression pretreated with LPS for 3 hrs followed by compound addition in presence of nigericin by Western blotting analysis; type: functional, cell-based
J774.A1 [2] = experiment: Inhibition of pyroptosis in mouse J774.A1 cells assessed as reduction in number of annexin V and PI positive cells pretreated with LPS for 3 hrs followed by compound addition in presence of nigericin by flow cytometry analysis; type: functional, cell-based
J774.A1 [3] = experiment: Downregulation of p65 phosphorylation in mouse J774.A1 cells preincubated for 30 mins followed by LPS addition and measured after 2 hrs by Western blotting analysis; type: functional, cell-based; details: time 2.5 hrs
J774.A1 [4] = experiment: Inhibition of pyroptosis in mouse J774.A1 cells assessed as reduction in LDH release at 0.5 to 2 uM pretreated with LPS for 3 hrs followed by compound addition in presence of nigericin; type: functional, cell-based; details: dose 0.5-2 µM
Caspase-7 (Mus musculus) = molecular target: T1, Caspase-7 (Mus musculus) (UniProt P97864); experiment: Inhibition of cisplatin induced caspase-7 activation in mouse J774.A1 cells at 0.5 uM preincubated for 30 mins followed by cisplatin addition and incubated overnight; type: cell-based
T1 sequence (whole entry): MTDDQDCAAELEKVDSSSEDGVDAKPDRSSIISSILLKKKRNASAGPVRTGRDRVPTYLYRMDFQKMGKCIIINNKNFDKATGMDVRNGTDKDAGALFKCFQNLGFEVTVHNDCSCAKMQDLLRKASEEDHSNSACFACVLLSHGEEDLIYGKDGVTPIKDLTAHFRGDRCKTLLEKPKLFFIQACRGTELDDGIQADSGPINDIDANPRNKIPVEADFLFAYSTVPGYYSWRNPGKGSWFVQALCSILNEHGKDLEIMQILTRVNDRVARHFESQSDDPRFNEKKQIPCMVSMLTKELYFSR

J774.A1 [5] = experiment: Downregulation of IKKalpha/beta phosphorylation in mouse J774.A1 cells preincubated for 30 mins followed by LPS addition and measured after 2 hrs by Western blotting analysis; type: functional, cell-based; details: time 2.5 hrs
Caspase-3 (Mus musculus) = molecular target: T2, Caspase-3 (Mus musculus) (UniProt P70677); experiment: Inhibition of cisplatin induced caspase-3 activation in mouse J774.A1 cells at 0.5 uM preincubated for 30 mins followed by cisplatin addition and incubated overnight; type: cell-based
T2 sequence (whole entry): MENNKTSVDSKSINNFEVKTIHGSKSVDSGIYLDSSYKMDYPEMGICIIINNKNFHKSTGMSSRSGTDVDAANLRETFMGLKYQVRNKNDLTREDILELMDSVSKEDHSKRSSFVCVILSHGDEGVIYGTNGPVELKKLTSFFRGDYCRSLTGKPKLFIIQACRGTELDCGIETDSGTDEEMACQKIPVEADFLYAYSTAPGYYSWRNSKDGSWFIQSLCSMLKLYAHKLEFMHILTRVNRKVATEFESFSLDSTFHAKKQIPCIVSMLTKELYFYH

J774.A1 [6] = experiment: Downregulation of inhibitor kappa B-alpha phosphorylation in mouse J774.A1 cells preincubated for 30 mins followed by LPS addition and measured after 2 hrs by Western blotting analysis; type: functional, cell-based; details: time 2.5 hrs
Caspase-1 (Mus musculus) = molecular target: T3, Caspase-1 (Mus musculus) (UniProt P29452); experiment: Binding affinity to caspase-1 in LPS-induced mouse J774.A1 cells assessed as reduction in IL-1beta level at 0.5 uM preincubated with compound followed by nigericin addition; type: cell-based; details: time 3-24 hrs
T3 sequence (whole entry): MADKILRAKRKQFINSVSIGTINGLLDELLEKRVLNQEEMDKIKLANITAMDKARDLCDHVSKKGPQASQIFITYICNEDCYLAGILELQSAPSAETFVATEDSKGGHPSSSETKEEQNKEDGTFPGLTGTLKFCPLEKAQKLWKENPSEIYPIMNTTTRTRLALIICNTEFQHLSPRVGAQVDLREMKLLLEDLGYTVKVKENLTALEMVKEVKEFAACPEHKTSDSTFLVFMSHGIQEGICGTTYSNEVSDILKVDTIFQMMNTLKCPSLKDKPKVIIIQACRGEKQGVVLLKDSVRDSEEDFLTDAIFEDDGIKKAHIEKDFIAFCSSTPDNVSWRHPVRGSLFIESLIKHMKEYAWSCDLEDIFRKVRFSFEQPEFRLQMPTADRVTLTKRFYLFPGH

J774.A1 [7] = experiment: Inhibition of pyroptosis in mouse J774.A1 cells assessed as reduction in caspase-1 to GSDMD interaction at 0.5 uM pretreated with LPS for 3 hrs followed by compound addition in presence of nigericin by immunoprecipitation analysis; type: functional, cell-based
Mus musculus = experiment: Anti-inflammatory activity in MSU/C18:0 free fatty acid induced ip dosed Kunming mouse model of gouty arthritis assessed as reduction in joint swelling preadministered with compound for 30 mins followed by MSU/C18:0 free fatty acid injection and measured after 24 hrs; type: functional, organism-based; details: time 24.5 hrs

SMILES	inhibition (J774.A1 [1])	inhibition (J774.A1 [2])	Activity (J774.A1 [3])	inhibition (J774.A1 [4])	inhibition (Caspase-7 (Mus musculus))	Activity (J774.A1 [5])	inhibition (Caspase-3 (Mus musculus))	Activity (J774.A1 [6])	Activity (Caspase-1 (Mus musculus))	inhibition (J774.A1 [7])	Activity (Mus musculus)
CCO[C@@H]1OC(=O)C[C@@H]1NC(=O)[C@@H]1CCCN1C(=O)[C@@H](NC(=O)c1ccc(N)c(Cl)c1)C(C)(C)C	Active	Active	Active	Active	inactive	Active	inactive	Active	inactive	Active	
COc1cc2c(c(OC)c1OC)-c1ccc(OC)c(=O)cc1[C@@H](NC(C)=O)CC2											Active
